We go through 23 compounds from PubChem BioAssay (NCI).

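Growth conditions: 96-well plates. Treatment: test compound, 48 hours, 5 concentrations. Analysis: linear interpolation between bracketing concentrations; unreached endpoints set to highest concentration. At the GI50, growth is halved. TGI: total growth inhibition.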

Holding throughout (assay): inhibition of tumour cell growth, NCI panel, 48 h
The test system of experiment [1] is UACC-62 melanoma.
For experiment [2], the system named is HL-60(TB) leukemia.
Experiment [3] has as its system SNB-19 CNS.
Experiment [4] has as its system RPMI-8226 leukemia.
The test system of experiment [5] is UO-31 renal.
Experiment [6] has as its system IGROV1 ovarian.
The subject of experiment [7] is TK-10 renal.
Experiment [8] has as its system SN12C renal.
For experiment [9], the system named is M14 melanoma.
Experiment [10] has as its system NCI/ADR-RES ovarian.

With `CCOc1ccccc1N=Nc1ccc2oc(=O)c(C(C)=O)cc2c1`, the TGI in experiment [1], in experiment [2], in experiment [3], in experiment [4], in experiment [5] and in experiment [6] was greater than 100 µM each time. Besides, the TGI in experiment [7], in experiment [8] and in [9] was greater than 100 µM throughout.
As for `CC1=CC2C(C=C1)S(=O)(=O)N1CC21c1ccccc1` (stereo not given), the TGI in experiment [1], in [2], in [3], in experiment [4], in [5] and in experiment [6] was greater than 100 µM throughout. Further, the TGI in experiment [7], in [8] and in [9] was greater than 100 µM each time.
Turning to `CC1(C)OC(=O)C(C)(C)C(=O)O1`, the TGI in [1], in [3], in experiment [5], in experiment [6], in [7] and in experiment [8] was greater than 100 µM throughout. Further, the TGI in experiment [10] and in experiment [9] was greater than 100 µM each time.
Consider `CC1=C(c2nc3ccccc3s2)C(=O)OC1(C)C`, for which the TGI in experiment [1], in experiment [3], in experiment [4], in [5], in [8] and in [9] was greater than 100 µM each time.
In the case of `CCOC1=C2N=C(C(CC)c3ccccc3F)N=C2C(=O)c2ccccc21` (stereo not given), the TGI in [1], in experiment [2], in experiment [3], in experiment [4], in experiment [5] and in experiment [7] was greater than 100 µM throughout. In addition, the TGI in experiment [8] and in experiment [9] was greater than 100 µM throughout.
Take `Cc1cc2ncn(-c3nc4ccccc4nc3C(C#N)S(C)(=O)=O)c2cc1C` (stereo not given): the TGI in experiment [1], in experiment [2], in [3], in experiment [4], in experiment [5] and in experiment [6] was greater than 100 µM each time. Moreover, the TGI in experiment [7], in experiment [8] and in experiment [9] was greater than 100 µM throughout.
On to `N#CC(NNC(=O)Cc1ccccc1)c1cccc(O)c1` (stereo not given), for which the TGI in experiment [1], in experiment [2], in [4], in experiment [5], in experiment [6] and in experiment [7] was greater than 100 µM each time. In addition, the TGI in [8] and in experiment [9] was greater than 100 µM throughout.
As for `COc1ccc2[nH]c3c(c2c1)[C@H](c1ccccc1)C[C@@H]1C(=O)N(c2ccccc2)C(=O)[C@H]31`, the TGI in experiment [1] is greater than 100 µM; in [3], greater than 100 µM; in experiment [5] it was 52.3 µM; in experiment [6], greater than 100 µM; in [7] it was greater than 100 µM; in experiment [8] it was 33.3 µM. The same compound showed a TGI in [9] greater than 100 µM.
With `CCOC(=O)c1c2ccc(/C=C/c3ccccn3)ccc-2c(C(=O)OCC)c1N`, the TGI in experiment [1], in [2], in experiment [3], in [5], in experiment [6] and in [7] was greater than 100 µM in each case. The TGI in experiment [9] is greater than 100 µM.
In the case of `O=C1[C@@H]2C(c3ccc(Br)cc3)=NO[C@@H]2C(=O)N1c1ccc(Cc2ccc(N3C(=O)[C@H]4C(c5ccc(Br)cc5)=NO[C@H]4C3=O)cc2)cc1`, the GI50 in experiment [1], in experiment [4], in experiment [5], in experiment [6] and in experiment [9] was greater than 40 µM in each case. Further, the TGI was greater than 40 µM in [1]; greater than 3.48 µM in experiment [2]; greater than 3.48 µM in [3]; greater than 40 µM in experiment [4]; greater than 40 µM in experiment [5]; greater than 40 µM in [6]. The TGI in experiment [7], in experiment [8] and in experiment [9] was greater than 40 µM each time.
Take `O=Cc1c[nH]c2c(=O)[nH]cnc12`: the TGI in experiment [1], in experiment [2], in experiment [3], in experiment [4], in experiment [5] and in [6] was greater than 100 µM in each case. The TGI in experiment [7], in [8] and in experiment [9] was greater than 100 µM throughout.
On to `O=c1[nH]/c(=C/c2ccc3c(c2)OCO3)c(=O)[nH]/c1=C/c1ccc2c(c1)OCO2`, for which the TGI in experiment [1], in experiment [3], in experiment [4], in experiment [5], in [6] and in [7] was greater than 10 µM throughout. Moreover, the TGI in experiment [8], in experiment [10] and in [9] was greater than 10 µM throughout.
As to `COc1ccc(N2C(=O)c3c(c4[nH]c5ccccc5c4c4ccc(C(C)(C)C)cc34)C2=O)cc1`, the TGI in [1] is 48.3 µM; in [3], greater than 100 µM; in experiment [5] it was greater than 100 µM; in experiment [6] it was greater than 100 µM; in [7], greater than 100 µM; in experiment [8] it was greater than 100 µM. The compound also registered a TGI in experiment [9] greater than 100 µM.
Turning to `O=c1[nH]nc(Cc2ccccc2)n1/N=C/c1cccs1`, the TGI in experiment [1], in experiment [3], in experiment [4], in experiment [5], in [8] and in experiment [10] was greater than 100 µM throughout. Moreover, the TGI in [9] is greater than 100 µM.
In the case of `O=C(Cc1ccccc1)NN1C(=O)C(Cl)C1c1ccccc1Cl` (stereo not given), the TGI is greater than 100 µM in experiment [1]; greater than 100 µM in [2]; greater than 100 µM in experiment [3]; 51.1 µM in [4]; greater than 100 µM in [5]; greater than 93.1 µM in experiment [6]. The TGI in [7], in [8] and in [9] was greater than 100 µM throughout.
For the compound `CC(C)c1cccc(C(C)C)c1NC(=O)C(=O)Cc1nc2ccc([N+](=O)[O-])cc2[nH]c1=O`, the TGI in [1], in [2], in experiment [3], in experiment [5], in [6] and in experiment [7] was greater than 100 µM each time. For the same compound, the TGI in experiment [9] was greater than 100 µM.
With `COc1cc2ccc3c4ccccc4cnc3c2cc1OC`, the TGI in experiment [1], in experiment [2], in [3], in experiment [4], in [5] and in experiment [6] was greater than 100 µM throughout. Further, the TGI in experiment [7], in experiment [8] and in [9] was greater than 100 µM each time.
Consider `CCc1n[nH]c(=O)n1CCCCCCCCn1c(CC)n[nH]c1=O`, for which the TGI in [1], in experiment [3], in experiment [4], in experiment [5], in experiment [6] and in experiment [7] was greater than 100 µM throughout. In addition, the TGI in [8], in experiment [10] and in experiment [9] was greater than 100 µM in each case.
For `[N-]=[N+]=Nc1ccccc1-c1ccccc1[N+](=O)[O-]`, the TGI in [1], in [3], in [4], in experiment [5], in [6] and in experiment [7] was greater than 100 µM each time. In addition, the TGI was greater than 100 µM in experiment [8], 92.1 µM in [10] and greater than 100 µM in [9].
Consider `COC(=O)C(=O)C(C(=O)OC)C(=O)C(=O)Nc1c(C)cccc1C` (stereo not given), for which the TGI in [1], in experiment [2], in [3], in experiment [4], in experiment [5] and in experiment [6] was greater than 100 µM throughout. Moreover, the TGI in experiment [7], in experiment [8] and in experiment [9] was greater than 100 µM throughout.
For `COc1ccc(C2c3cc4c(cc3OC(NNc3ccccc3)C2C)OCO4)cc1` (stereo not given), the TGI in experiment [1] was 59.5 µM; in experiment [2], 20.8 µM; in experiment [3] it was greater than 100 µM; in experiment [4], greater than 100 µM; in experiment [5] it was greater than 100 µM; in experiment [6], greater than 100 µM. Also, the TGI in [7] is greater than 100 µM; in [8] it was 50.8 µM; in [9] it was greater than 100 µM.
As to `Nc1nc2c(N)cc(C(F)(F)F)cc2nc1-c1ccccc1`, the TGI in experiment [1], in [2], in [3], in experiment [5], in [6] and in experiment [7] was greater than 100 µM in each case. The TGI in experiment [8] and in experiment [9] was greater than 100 µM each time.
Take `COC(=O)C1CC2C=CC=CC(=O)C2(C)C1` (stereo not given): the TGI was greater than 100 µM in [1]; 55.1 µM in experiment [2]; greater than 100 µM in [3]; 59.5 µM in experiment [4]; greater than 100 µM in experiment [5]; greater than 100 µM in experiment [6]. The TGI in [7] was greater than 100 µM; in experiment [8], greater than 100 µM; in [9], 88.5 µM.
